Values of other authors as cited in patent US20260374745A1, “METHODS FOR PRODUCING AROMATIC THIAZINES OR SELENAZINES” (Universität Heidelberg, priority 2023, published 2026).

What was measured:
HIV = conditions: Mizuhara et al., Org. Biomol. Chem. 2012, 10, 6792-6802
[1] = system: 3-deoxy-d-manno-octulosonic acid 8-phosphate (KDO 8-P) synthase; conditions: role: inhibitor; Birck et al., J. Am. Chem. Soc. 2000, 122, 9334-9335

In the case of `N=C1Sc2ccccc2C2=NCCCN12` [PD 404182], the anti-HIV activities (HIV) is given as “potent” and the “3-deoxy-d-manno-octulosonic acid 8-phosphate (KDO 8-P) synthase inhibitor” value [1] is given as “inhibitor”.
